US20200071316A1, “ACTIVATORS OF THE RETINOIC ACID INDUCIBLE GENE "RIG-I" PATHWAY AND METHODS OF USE THEREOF” (Kineta Immuno-Oncology LLC, priority 2018, published 2020)
Marks after values point to notes of the source that are not given here.

Key:
[1] = test system: RIG-I deficient CT26 RIG-1−/− cells; experiment: CXCL10 secretion in RIG-I deficient CT26 RIG-1−/− cells (ELISA); assay type: cell-based, murine; details: 24 h
Outline: (§1)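 Murine CT26 colon carcinoma cells, and CRISPR-generated RIG-I knockout CT26 cells, were seeded at 1×10^4 cells/well and grown 24 h at 37 °C, 5% CO2, then treated with compounds at 5 to 20 μM. CXCL10 in supernatants was measured by ELISA 24 h after stimulation.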

[2] = test system: THP1-Lucia ISG IRF3 −/− cells; experiment: IRF3-deficient THP1-Lucia ISG IRF3 −/− reporter assay (counter-screen); assay type: cell-based; details: Homo sapiens, 18 h after stimulation, read-out: THP1 ISG IRF3 −/−: fold increase of luciferase activity over background; for fold induction at 10 µM: 10 μM compound; for fold induction at 20 µM: 20 μM compound (*)
Outline: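 PMA-differentiated (100 ng/ml) reporter cells carrying ISRE/ISG54 minimal promoter-driven secreted luciferase were stimulated with compounds at 5–20 μM (mostly 10 μM). Luciferase measured 18 h later and expressed as fold increase over untreated background, binned from "−" (<2.4-fold) to "+++++" (≥40-fold).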

[3] = test system: IRF3 signaling pathway (IRF-inducible ISG54 promotor) in THP1-Lucia ISG cells; experiment: THP1-Lucia ISG reporter assay: induction of IRF3-dependent luciferase activity; assay type: cell-based; details: Homo sapiens, PMA-differentiated cells, 18 h after stimulation, read-out: THP1 ISG: fold increase of IRF3-dependent luciferase activity over background; for fold induction at 10 µM: 10 μM compound; for fold induction at 20 µM: 20 μM compound (*)
Outline: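 PMA-differentiated (100 ng/ml) reporter cells, parental and IRF3−/−, stimulated with compounds at 5–20 μM (mostly 10 μM). Secreted luciferase measured 18 h later. Scored as fold increase over untreated background in bands from "−" (<2.4-fold) to "+++++" (≥40-fold).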

[4] = test system: CXCL10 secretion by CT26 cells; experiment: RIG-I dependent CXCL10 secretion by CT26 colon carcinoma cells (ELISA); assay type: cell-based, murine; details: 24 h
Outline: as §1

| SMILES | CXCL10 secretion by CT26 RIG-I −/− cells ([1]; 10 μM compound) | fold induction at 10 µM [2] | fold induction at 10 µM [3] | CXCL10 secretion by CT26 cells ([4]; 10 μM compound) | fold induction at 20 µM [2] | fold induction at 20 µM [3] | CXCL10 secretion by CT26 RIG-I −/− cells ([1]; 20 μM compound (*)) | CXCL10 secretion by CT26 cells ([4]; 20 μM compound (*)) |
| --- | --- | --- | --- | --- | --- | --- | --- | --- |
| CS(=O)(=O)c1ccc2nc(NC(=O)c3cc4ccccc4cc3OCCCCN3CCOCC3)sc2c1 [Example 45, N-(6-methanesulfonyl-1,3-benzothiazol-2-yl)-3-[4-(morpholin-4-yl)butoxy]naphthalene-2-carboxamide] | − (“−” indicates less than 100 pg/mL) | < 2.4 | 5 to 9.9 | ++++ (“++++” indicates 800 to 1599 pg/mL) | – | – | – | – |
| O=C(Nc1nc2ccc(S(=O)(=O)N3CCC3)cc2s1)c1ccc2ccccc2c1 [Example 46, N-[6-(azetidine-1-sulfonyl)-1,3-benzothiazol-2-yl]naphthalene-2-carboxamide] | − (“−” indicates less than 100 pg/mL) | – | – | ++ (“++” indicates 200-399 pg/mL) | < 2.4 | 10 to 19 | – | – |
| O=C(Nc1nc2ccc(S(=O)(=O)N3CCCC3)cc2s1)c1ccc(-c2ccccc2)cc1OCCN1CCOCC1 [Example 47, 3-[2-(morpholin-4-yl)ethoxy]-N-[6-(pyrrolidine-1-sulfonyl)-1,3-benzothiazol-2-yl]-[1,1′-biphenyl]-4-carboxamide] | − (“−” indicates less than 100 pg/mL) | < 2.4 | ≥ 40 | +++ (“+++” indicates 400-799 pg/mL) | – | – | – | – |
| O=C(Nc1nc2ccc(SC(F)F)cc2s1)c1cc2ccccc2cc1OCCN1CCOCC1 [Example 48, N-{6-[(difluoromethyl)sulfanyl]-1,3-benzothiazol-2-yl}-3-[2-(morpholin-4-yl)ethoxy]naphthalene-2-carboxamide] | − (“−” indicates less than 100 pg/mL) | – | – | ++ (“++” indicates 200-399 pg/mL) | < 2.4 | 2.4 to 4.9 | – | – |
| O=C(Nc1nc2ccc(SC(F)F)cc2s1)c1cc2ccccc2cc1OCCCCN1CCOCC1 [Example 49, N-{6-[(difluoromethyl)sulfanyl]-1,3-benzothiazol-2-yl}-3-[4-(morpholin-4-yl)butoxy]naphthalene-2-carboxamide] | − (“−” indicates less than 100 pg/mL) | < 2.4 | 20 to 39 | +++ (“+++” indicates 400-799 pg/mL) | – | – | – | – |
| O=C(Nc1nc2ccc(S(=O)(=O)N3CCC3)cc2s1)c1ccc(-c2ccccc2)cc1 [Example 50, N-[6-(azetidine-1-sulfonyl)-1,3-benzothiazol-2-yl]-[1,1′-biphenyl]-4-carboxamide] | − (“−” indicates less than 100 pg/mL) | < 2.4 | 5 to 9.9 | +++++ (“+++++” indicates greater than or equal to 1600 pg/ml) | – | – | – | – |
| Cn1c(C(=O)Nc2nc3ccc(S(=O)(=O)N4CCC4)cc3s2)cc2ccccc21 [Example 51, N-[6-(azetidine-1-sulfonyl)-1,3-benzothiazol-2-yl]-1-methyl-1H-indole-2-carboxamide] | − (“−” indicates less than 100 pg/mL) | < 2.4 | 2.4 to 4.9 | + (“+” indicates 100-199 pg/mL) | – | – | – | – |
| Cn1c(C(=O)Nc2nc3ccc(S(=O)(=O)N4CCCC4)cc3s2)cc2ccccc21 [Example 52, 1-methyl-N-[6-(pyrrolidine-1-sulfonyl)-1,3-benzothiazol-2-yl]-1H-indole-2-carboxamide] | – | < 2.4 | 10 to 19 | – | – | – | −* (“−” indicates less than 100 pg/mL) | +* (“+” indicates 100-199 pg/mL) |
| O=C(Nc1nc2ccc(S(=O)(=O)N3CCCC3)cc2s1)c1ccc(-c2cccnc2)cc1 [Example 53, 4-(pyridin-3-yl)-N-[6-(pyrrolidine-1-sulfonyl)-1,3-benzothiazol-2-yl]benzamide] | − (“−” indicates less than 100 pg/mL) | < 2.4 | 2.4 to 4.9 | − (“−” indicates less than 100 pg/mL) | – | – | – | – |
